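Each compound was tested at five concentrations against cells in 96-well plates for 48 hours. GI50 marks 50% less growth.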 Calls of active or inactive are those of the source. No stated cut-off is given here; in the data, active = GI50 up to about 1.1 µM and inactive = higher.
Columns and labels:
Assay in all cases: inhibition of tumour cell growth, NCI panel, 48 h
A498 = tested on: A498
A549 = tested on: A549
ACHN = tested on: ACHN
DU-145 = tested on: DU-145
Hs-578T = tested on: Hs-578T
K562 = tested on: K562
KM12 = tested on: KM12
MDA-MB-231 = tested on: MDA-MB-231
MDA-MB-435 = tested on: MDA-MB-435
NCI-H522 = tested on: NCI-H522
OVCAR-3 = tested on: OVCAR-3
OVCAR-4 = tested on: OVCAR-4
OVCAR-8 = tested on: OVCAR-8
PC-3 = tested on: PC-3
SK-MEL-2 = tested on: SK-MEL-2
SW-620 = tested on: SW-620
UO-31 = tested on: UO-31
M14 = tested on: M14
SR = tested on: SR
RXF 393 = tested on: RXF 393

| SMILES | GI50 (A498) | GI50 (A549) | GI50 (ACHN) | GI50 (DU-145) | GI50 (Hs-578T) | GI50 (K562) | GI50 (KM12) | GI50 (MDA-MB-231) | GI50 (MDA-MB-435) | GI50 (NCI-H522) | GI50 (OVCAR-3) | GI50 (OVCAR-4) | GI50 (OVCAR-8) | GI50 (PC-3) | GI50 (SK-MEL-2) | GI50 (SW-620) | GI50 (UO-31) | GI50 (M14) | GI50 (SR) | GI50 (RXF 393) |
| --- | --- | --- | --- | --- | --- | --- | --- | --- | --- | --- | --- | --- | --- | --- | --- | --- | --- | --- | --- | --- |
| COc1cc2c(cc1OC)[C@H](C)N1CCc3cc(OC)c(OC)cc3[C@@H]1C2 | > 100 µM (inactive) | > 100 µM (inactive) | > 100 µM (inactive) | > 100 µM (inactive) | > 100 µM (inactive) | > 100 µM (inactive) | > 100 µM (inactive) | > 100 µM (inactive) | > 100 µM (inactive) | > 100 µM (inactive) | > 100 µM (inactive) | > 100 µM (inactive) | > 100 µM (inactive) | > 100 µM (inactive) | > 100 µM (inactive) | > 100 µM (inactive) | > 100 µM (inactive) | – | – | – |
| O=[N+]([O-])c1c(O)c2nonc2c2nn(-c3ccccc3)nc12 | – | > 100 µM (inactive) | > 100 µM (inactive) | > 100 µM (inactive) | 65.5 µM (inactive) | > 100 µM (inactive) | > 100 µM (inactive) | > 10 µM (inactive) | > 100 µM (inactive) | 40 µM (inactive) | > 100 µM (inactive) | 83.4 µM (inactive) | > 100 µM (inactive) | > 100 µM (inactive) | > 100 µM (inactive) | > 100 µM (inactive) | 43.2 µM (inactive) | > 100 µM (inactive) | > 100 µM (inactive) | – |
| C#Cc1cccc(N2C(=O)CCC2=O)c1 | 15.6 µM (inactive) | 21.4 µM (inactive) | 16.7 µM (inactive) | 14.4 µM (inactive) | 17.3 µM (inactive) | 2.65 µM (inactive) | 13.6 µM (inactive) | 12.2 µM (inactive) | 17.3 µM (inactive) | 4.17 µM (inactive) | 18.9 µM (inactive) | 13.1 µM (inactive) | 18.5 µM (inactive) | 15.2 µM (inactive) | 19.9 µM (inactive) | 5.61 µM (inactive) | 17.7 µM (inactive) | 7.62 µM (inactive) | 1.74 µM (inactive) | – |
| CC(O)c1cc2c(s1)C(=O)c1c(C(C)O)csc1C2=O (stereo not drawn) | 0.21 µM (active) | 0.184 µM (active) | 0.261 µM (active) | 0.119 µM (active) | 0.318 µM (active) | 0.139 µM (active) | 0.249 µM (active) | 0.063 µM (active) | 0.0252 µM (active) | 0.305 µM (active) | 0.0342 µM (active) | 0.177 µM (active) | 0.22 µM (active) | 0.117 µM (active) | 0.148 µM (active) | 0.118 µM (active) | 0.316 µM (active) | 0.126 µM (active) | – | 0.187 µM (active) |

Reference: ChEMBL document CHEMBL1201862, “PubChem BioAssay data set” (2004)
